# Measured values reported in patent US6538029B1, “Methods for treatment of renal cell carcinoma” (Cell Pathways, priority 2002, dated 2003).
# Counter-ions that a name gives are not always drawn. Like-named read-outs stand apart in the source and are kept apart here.
# Columns and labels:
# [1] = dog, in vivo
# Procedure: (§3) Therefore, these dogs were subsequently administered seven consecutive doses of 1000 mg/kg/day.
# PDE4 = assay: PDE inhibition, PDE4 (similar protocols); format: biochemical
# [2] = Phase I trial in patients with a range of solid tumors; format: in vivo
# Procedure: Cycles were repeated without a treatment-free interval. Doses ranged from 100 to 800 mg/day.
# PDEI = assay: PDE inhibition, PDEI (similar protocols); format: biochemical
# PDE10 from 786-O = PDE10 from 786-O (Homo sapiens, UniProt Q9Y233); assay: Inhibition and kinetics of PDE10 from 786-O (pooled fractions of the center peak); format: biochemical; details: IC50 on PDE10 from 786-O (inhibition of cGMP PDE activity), pooled center-peak fractions; FIG. 8, 9
# Procedure: (§1) Fractions were pooled from a 786-O profile from the center peak.
# as §1
# (§2) Protein assays were determined using the Bio-Rad DC Protein Assay. A nonlinear regression to the Michalis-Menten equation in Prism was used to determine the Km and Vmax.
# as §2
# 786-O cells [3] = format: cell-based; details: Homo sapiens, 786-0, 144 h; 6 days with drug, sulforhodamine B
# Procedure: Testing of Neoplastic Cell Growth Inhibition of PDE10-Inhibiting Compounds on Renal Cell Carcinoma (786-O) Cells. […] After 24 hours, the media was removed, and the same media containing the drug was added to the cells (0.1% DMSO final concentration).
# 28-day study in rats = format: in vivo
# Procedure: A 28-day study in rats was also carried out at 0, 50, 500 and 2000 mg/kg/day.
# [4] = Seven-day dose-range finding study in rats; format: in vivo; details: seven days
# [5] = rat, in vivo
# [6] = Acute and seven-dose toxicity in dogs (capsules); details: both, dog, in vivo, po, 1000 mg/kg
# Procedure: as §3
# [7] = Acute toxicity study in rats; details: rat, in vivo
# [8] = 91-day long-term safety assessment study in rats; format: in vivo
# From the text: These changes were not associated with any gross clinical abnormality.
# 786-O cells [9] = assay: Apoptosis on 786-O cells (Roche Cell Death Assay); format: cell-based, human; details: Homo sapiens, 786-0; 48 hours with drug; read-out: IC50 for induction of apoptosis in the 786-O cell line
# Procedure: Testing of PDE10-Inhibiting Compounds for Apoptosis on Renal Carcinoma (786-O) Cells. […] After 24 hours, the media was removed and the same media containing the drug was added to the cells (0.1% DMSO final concentration). After 48 hours, apoptosis was detected using the Roche Cell Death Assay.
# [10] = Single, escalating dose normal human volunteer clinical trial; format: in vivo; details: normal human volunteers, oral single escalating dose, any dose (50 mg-700 TDD)
# [11] = 91-day oral study in dogs; format: in vivo
# renal cell carcinoma = assay: Human clinical study in locally advanced or metastatic renal cell cancer; format: in vivo
# Procedure: Patients were treated with 400 mg daily (200 mg twice daily) and continued at this dose throughout the study, provided no intolerable toxicity or disease progression occurred. Disease response was assessed by physical examination, chest x-ray and MRI or CT scan every eight weeks.
# Nineteen patients with heavily pre-treated advanced, progressive renal cell carcinoma were entered into the study. […] The patients were on drug daily for a minimum of eight weeks.
# The adverse events, which were reported (regardless of relationship), were of the nature and severity expected in this patient population.
# PDE5 = target: T1, PDE5 (Homo sapiens, UniProt O76074); assay: cGMP PDE inhibition, PDE5; format: biochemical
# T1 construct: partially purified cGMP-specific PDE isolated from HT-29 cells; endogenous in cells; host or cells: HT-29 cells (partially purified enzyme)
# From the text: Compounds of this invention are also PDE2 and PDE5 inhibitors as taught in part U.S. patent application Ser. No. 09/046,739 filed Mar. 24, 1998, now abandoned. Compounds can be tested for inhibitory effect on phosphodiesterase activity using either the enzyme isolated from any tumor cell line such as HT-29 or SW-480. […] (Thompson, W. J., Teraski, W. L., Epstein, P. M., Strada, S. J., Advances in Cyclic Nucleotide Research, 10:69-92, 1979, which is incorporated herein by reference). In brief, asolution of defined substrate ^3H-cGMP specific activity (0.2 μM; 100,000 cpm; containing 40 mM Tris-HCl (pH 8.0), 5 mM MgCl2 and 1 mg/ml BSA) is mixed with the drug to be tested in a total volume of 400μl. The mixture is incubated at 30° C. for 10 minutes with partially purified cGMP-specific PDE isolated from HT-29 cells. Reactions are terminated, for example, by boiling the reaction mixture for 75 seconds. After cooling on ice, 100 μl of 0.5 mg/ml snake venom (O. Hannah venom available from Sigma) is added and incubated for 10 min at 30° C. […] The amount of radioactivity in the breakthrough and the wash from the columns in then measured with a scintillation counter. The degree of PDE5 inhibition is determined by calculating the amount of radioactivity in drug-treated reactions and comparing against a control sample (a reaction mixture lacking the tested compound).
# [12] = 28 days, 50, 500 and 2000 mg/kg/day
# Chain of PDE10 from 786-O (Q9Y233 290-1055 limits assumed): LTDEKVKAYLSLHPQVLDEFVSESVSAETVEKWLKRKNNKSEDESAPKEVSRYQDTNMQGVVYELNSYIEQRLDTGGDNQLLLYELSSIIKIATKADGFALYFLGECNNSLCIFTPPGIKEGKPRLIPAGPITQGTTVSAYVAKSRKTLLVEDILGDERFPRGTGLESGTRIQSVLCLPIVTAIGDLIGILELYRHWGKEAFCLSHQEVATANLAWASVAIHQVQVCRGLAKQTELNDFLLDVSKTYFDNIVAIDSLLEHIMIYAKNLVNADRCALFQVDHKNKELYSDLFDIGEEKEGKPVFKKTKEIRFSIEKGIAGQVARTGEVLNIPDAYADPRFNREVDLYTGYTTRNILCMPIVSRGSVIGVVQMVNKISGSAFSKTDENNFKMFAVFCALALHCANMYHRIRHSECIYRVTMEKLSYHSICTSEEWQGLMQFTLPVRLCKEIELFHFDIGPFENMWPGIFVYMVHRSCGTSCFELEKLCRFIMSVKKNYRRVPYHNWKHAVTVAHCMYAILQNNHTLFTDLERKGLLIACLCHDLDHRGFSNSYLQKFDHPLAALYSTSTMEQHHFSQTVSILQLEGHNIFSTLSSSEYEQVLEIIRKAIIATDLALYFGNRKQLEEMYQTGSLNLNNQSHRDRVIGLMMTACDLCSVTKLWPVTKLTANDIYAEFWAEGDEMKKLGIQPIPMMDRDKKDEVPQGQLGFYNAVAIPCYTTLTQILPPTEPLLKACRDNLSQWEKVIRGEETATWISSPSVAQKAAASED
structure (smiles),measurement,setting,value
"CC1=C(CC(=O)NCc2ccccc2)c2cc(F)ccc2C1=Cc1ccncc1 [Compound 38, (Z)-5-Fluoro-2-methyl-(4-pyridylidene)-3-(N-benzyl)indenylacetamide Hydrochloride]",Signs of toxicity,[1]; 1000 mg/kg,no signs of toxicity
same,Signs of drug-related effects,[1]; 1000 mg/kg/day,At no time in either dosing phase were any obvious signs of drug-related effects observed
same,IC50,PDE4,6 µM
same,Tolerability of therapy,"[2]; 21 patients, orally twice daily for 28 consecutive days, 100 to 800 mg/day",well tolerated overall
same,Maximum tolerated dose,[2]; 100 to 800 mg/day,not reached
same,Toxicity,"[2]; up to 800 mg TDD, orally, twice-daily schedule",minimally toxic
same,IC50,PDEI,3 µM
same,IC50,PDE10 from 786-O,3.7 µM
same,IC50,786-O cells [3],1.1 µM
same,Macroscopic tissue changes at necropsy,28-day study in rats; 28 days,No macroscopic tissue changes
same,Liver weights,"28-day study in rats; 28 days, 2000 mg/kg/day",statistically significant increase
same,Thyroid weights,"28-day study in rats; 28 days, 2000 mg/kg/day",statistically significant increases
same,"Body weight changes, ophthalmoscopic examinations, hematological and blood chemistry values, urinalysis",28-day study in rats; [12],unremarkable
same,Clinical observations,28-day study in rats; [12],no abnormal clinical observations
same,Histopathological evaluation of tissues,"28-day study in rats; 28 days, generally a small number of animals at 2000 mg/kg/day, one female at 500 mg/kg/day","traces of follicular cell hypertrophy, increased numbers of mitotic figures (suggestive of possible cell proliferation) in the thyroid gland and mild centrilobular hypertrophy in the liver"
same,Slight liver and thyroid increases,"28-day study in rats; 28 days, lower doses",not statistically significant
same,Signs of toxicity,[4]; 50 mg/kg/day,no observable signs of toxicity
same,Treatment-related effects,[4]; 500 mg/kg/day,an increase in absolute and relative liver weights in female rats
same,Treatment-related effects,[4]; 2000 mg/kg/day,"labored breathing and/or abnormal respiratory sounds, decreased weights gains and food consumption in male rats, and increased liver weights in female rats"
same,"Hematology, blood chemistry, microscopic pathology","[4]; any dose level (50, 500, 2000 mg/kg/day)",No hematological or blood chemistry changes nor any microscopic pathology changes
same,Body weight gain,"[5]; ip, 1000 mg/kg",reduced body weight gain
same,Necropsy finding,"[5]; ip, 1000 mg/kg",mesenteric adhesions seen in some animals
same,Body weight gains,"[5]; po, 2000 mg/kg",slightly reduced
same,LD50,[6],> 1000 mg/kg
same,LD50,"[7]; ip, 1000 mg/kg",> 1000 mg/kg
same,LD50,[7]; po,> 2000 mg/kg
same,Clinical biochemistry and hematology,[8]; 91 days,no changes
same,Microscopic findings,[8]; 91 days,"slight hepatocellular hypertrophy at 200 and 500 mg/kg/day groups, follicular cell hypertrophy at 500 mg/kg/day and increase in accumulation of hyalin droplets in the kidneys at 200 and 500 mg/kg/day group"
same,Organ weights,"[8]; 91 days, males and females at 200 and 500 mg/kg/day",dose-related trend to increased liver and thyroid/parathyroid weights
same,Toxicological effects,"[8]; oral, 91 consecutive days, 50, 200 and 500 mg/kg/day",did not produce any major toxicological effects
same,IC50,786-O cells [9],1 µM
same,Side effects,[10],no significant side effects
same,Microscopic alterations (liver),[11]; 91 days,no microscopic alterations
same,Tolerability,[11]; 91 days,well tolerated
same,Feces,"[11]; 91 days, 150 and 300 mg/kg/day groups",Orange discoloration of the feces
same,Body weights,"[11]; 91 days, highest dose group",Slightly lowered body weights
same,Liver weights,"[11]; 91 days, highest dose group",increased liver weights
same,Toxicological effects,"[11]; oral, 91 consecutive days, 50, 150 and 300 mg/kg/day",no toxicological effects
same,Serious Adverse Events due to the drug,"renal cell carcinoma; 400 mg daily, renal cell carcinoma patients",No Serious Adverse Event due to the drug was reported
same,Patients who achieved stable disease,"renal cell carcinoma; interim evaluation of 16 evaluable patients, 400 mg daily (200 mg twice daily), minimum of eight weeks",six
same,IC50,PDE5,4 µM
